Reference: the METLIN SMRT retention time set (Domingo-Almenara et al. 2019)

Experiment: gradient 5% acetonitrile 3 min, to 50% in 2 min, to 85% in 15 min, held 3 min, 100 µL/min
Settings: column: Zorbax Extend-C18 2.1 x 50 mm; eluents: water / acetonitrile, 0.1% formic acid
Procedure, shortened: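 Each retention time is based on an adduct peak selected computationally and verified by manual inspection. Measurements used HPLC–quadrupole time-of-flight mass spectrometry in positive and negative ionization mode on mixtures of ~100 pure standards. Chromatography ran on a Zorbax Extend-C18 column (2.1 × 50 mm, 1.8 μm) at 100 μL/min with water and acetonitrile, each containing 0.1% formic acid, and dead and dwell volumes of 40 μL and 900 μL.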

Compound | RP-LC retention time
COC(=O)c1ccc(NC(=O)CN2CCC(c3nc(-c4cccs4)no3)CC2)cc1 | 621 s
Cc1ccccc1NS(=O)(=O)c1ccc2c(c1)CCCC(=O)N2 | 725 s
O=C(Nc1cccc(-c2cn3cccnc3n2)c1)c1ccccc1[N+](=O)[O-] | 637 s
CCc1nc(N)n(CC(=O)Nc2cccc(C)c2)c(=O)c1C | 610 s
O=C(CCCc1ccccc1)N1CCN(c2cc(-c3cccs3)[nH]n2)CC1 | 860 s
CCN(CC)C(=O)c1ccc2c(c1)N(CC(=O)N1CCN(c3ccccn3)CC1)C(=O)CO2 | 574 s
Cc1ccc2cc(CCC(=O)NCCCN3CCCCC3)c(=O)[nH]c2c1 | 584 s
O=C(CCc1c(-c2ccc(F)cc2)nc2ccccn12)Nc1cc(F)ccc1F | 697 s
CCCCN(C)C(=O)Cn1ccn2nc(-c3ccccc3)c(CO)c2c1=O | 776 s
COc1ccc(NC(=O)c2cnc3c(c2)c(=O)n(C)c(=O)n3-c2ccc(C)cc2)cc1 | 900 s
CCc1nc2c(c(=O)n1CC(=O)NCc1cccs1)CN(Cc1ccccc1)CC2 | 624 s
Cc1cc(Cl)ccc1S(=O)(=O)N(C)C1CCc2nn(CC3CC3)c(=O)n2CC1 (centres undefined) | 772 s
Cc1[nH]c(/C=C2\C(=O)Nc3ccc(S(=O)(=O)Cc4c(Cl)cccc4Cl)cc32)c(C)c1C(=O)N1CCC[C@@H]1CN1CCCC1 | 787 s
O=C(CN1CCc2ccccc2C1C(=O)N1CCCC1)N1CCN(c2ccccc2)CC1 (centres undefined) | 696 s
Cc1ccc(N2C(=O)CN(Cc3ccco3)[C@H]3CS(=O)(=O)C[C@H]32)cc1 | 737 s
O=C(Nc1ccc(OC(F)(F)F)cc1)C1CCCN(c2cc(-n3cccn3)ncn2)C1 (centres undefined) | 992 s
Cc1nc(-c2ccc3c(c2)CCN3C(=O)c2n[nH]c3ccccc23)cs1 | 959 s
Cc1ccc(NC(=O)N2CCC[C@@H]2C(=O)NCc2csc(-c3ccccc3)n2)cc1C | 861 s
CCC(C)NC(=O)c1cc2c(n(-c3ccc(C(F)(F)F)cc3)c1=O)CCCC2=O (centres undefined) | 946 s
CCc1nnc(-c2coc(S(=O)(=O)N3CCN(C4CCCCC4)CC3)c2)o1 | 628 s
COc1cc(OC)c(NC(=O)N2CCCC(C)(C(=O)NCc3ccc(F)cc3)C2)cc1Cl (centres undefined) | 916 s
CCc1ccc(C(C)NC(=O)C2CCN(Cc3cn(C)c4ccccc34)CC2)cc1 (centres undefined) | 764 s

Compound | RP-LC retention time
CCCn1nnc2cc(S(=O)(=O)N3CCCC(C(=O)N4CCCCCC4)C3)ccc21 (centres undefined) | 890 s
Cc1cccc(-c2nc(N)n(C(=O)C(C)(C)C)n2)c1 | 1090 s
COCCCNC(=O)C1CCN(C(=O)c2ccc(-n3c(C)cc4ccccc43)s2)CC1 | 854 s
CN(C)C(=O)c1ccc2c(c1)nc(CN1CCN(C(=O)c3cccs3)CC1)n2C | 588 s
COc1ccc(OC)c(CNC(=O)CN2CCN(Cc3ccc(F)cc3)C2=O)c1 | 787 s
CCNS(=O)(=O)c1cc(-c2c(CC)noc2NC(C)=O)ccc1C | 698 s
Cc1ccc(C)c(N2CCN(c3ccnc(SCC(=O)Nc4ccc5c(c4)OCO5)n3)CC2)c1 | 858 s
Cc1csc(-c2ccc(N3CCN(C(=O)COc4ccc(Cl)cc4)CC3)nc2)n1 | 925 s
COc1cccc(-c2nc3cnccn3c2NCCC(=O)Nc2ccc3c(c2)OCCO3)c1 | 672 s
O=C(C1CCC(=O)N1S(=O)(=O)c1ccccc1)N1CCN(c2ccccn2)CC1 (centres undefined) | 602 s
Cc1cc(C(=O)Nc2ccc(S(C)(=O)=O)cc2)on1 | 625 s
CN(CC1CCOC1)C(=O)Nc1ccc(C(F)(F)F)cc1 (centres undefined) | 783 s
O=C1CN(Cc2ccc(OC(F)(F)F)cc2)C2(CCCC2)CN1 | 682 s
COc1ccc(-c2c(C(=O)NC(C)C)nc3ccccn23)cc1 | 676 s
CCCCn1nc2ccc(S(=O)(=O)N3CCOCC3)cn2c1=O | 739 s
CC(C)n1c(CCNC(=O)CCc2ccccc2)nc2cccnc21 | 716 s
CC(C)CCNS(=O)(=O)c1ccc(-c2cc(C(F)(F)F)on2)o1 | 1090 s
CCc1nnc(-c2cccn2CC(=O)Nc2cc(OC)cc(OC)c2)o1 | 787 s
Cc1cccc(-c2noc(Cc3nc(-c4ccccc4)cs3)n2)c1 | 1260 s
CCOc1ccc(S(=O)(=O)N2CCCC(C(=O)NCc3cccnc3)C2)cc1C (centres undefined) | 685 s
COc1ccc(OC)c(CNC(=O)c2ccc3[nH]c4c(c3c2)CN(C(C)=O)CC4)c1 | 680 s
CCc1nnc(C2CN(C)CC23CCN(S(=O)(=O)c2ccccc2C)CC3)o1 (centres undefined) | 627 s
